US20190183963A1, “PROCESS FOR THE SYNCHRONIZATION OF OVULATION FOR TIMED BREEDING WITHOUT HEAT DETECTION” (priority 2003, published 2019)

Legend:
Format in all cases: in vivo, swine
[1] = system: postpartum sows; test: Single timed deslorelin in SAIB injection 96 hours post-weaning, single timed insemination without estrus detection
Experimental: Approximately 170 postpartum sows were randomly divided into two equal groups comprised of controls and treated. Following weaning, the controls were detected for estrus and bred following the normal standard operating procedures for the farms on which they resided. The treated sows received a 50 mcg dose of deslorelin in SAIB at 96 hours post-weaning and were bred with a single insemination 28+/−2 hours later with no regard to estrus detection. The sows were examined for pregnancy by ultrasound at 21 days and slaughtered around 28 days post breeding. The entire reproductive tract was removed and corpora lutea and embryos were counted.

[2] = system: ovariectomized estrogen primed gilt model; test: Dose response study of deslorelin in SAIB, LH release determined by RIA; conditions: single injection of 50 mcg
Experimental: A dose response study was performed using deslorelin in SAIB in an ovariectomized estrogen primed gilt model (Barb, et al. (1999) Proceed. Int'l. Symp. Control. Rel. Bioact. Mater., 26).

[3] = system: mature postpartum sows; test: Intravulvar deslorelin in SAIB at estrus detection, AI breeding of mature postpartum sows; conditions: 50 μg intravulvar at first estrus detection
Experimental: Sows were assigned randomly in blocks of two to either control or to be injected intravulvar with 50 mcg of deslorelin in SAIB at the time of estrus detection for sows first detected in estrus in the a.m. and 12 hours later for those first detected in estrus in the p.m. Treated animals were bred AI upon detected estrus and again 24 hours later if still in estrus. Controls received a saline injection on first detected estrus behavior estrus detection and were bred according to the farm's normal procedures.

## CCNC(=O)[C@@H]1CCCN1C(=O)[C@H](CCCN=C(N)N)NC(=O)[C@H](CC(C)C)NC(=O)[C@@H](Cc1c[nH]c2ccccc12)NC(=O)[C@H](Cc1ccc(O)cc1)NC(=O)[C@H](CO)NC(=O)[C@H](Cc1c[nH]c2ccccc12)NC(=O)[C@H](Cc1cnc[nH]1)NC(=O)[C@@H]1CCC(=O)N1 [Deslorelin, deslorelin]
[1]; 50 mcg at 96 hours post-weaning, single insemination 28+/-2 hours later, 84 in group, ultrasound at 21 days
  Sows Pregnant: 60
[1]; single timed injection post-weaning, single timed insemination, no estrus detection
  pregnancy rates (in words): normal pregnancy rates
[2]
  time at which LH returned to base level: ≤ 18 h
[2]; normal value from Hansel et al. 1973
  LH peak relative to normal value: about twice normal value
[3]; AI, AI again if in estrus the next day
  Length of Estrus (Hrs.): 40.81 (n = 69) Hrs.
[3]; difference to saline control, listed as deslorelin in SAIB
  Live piglet number per litter, greater in Deslorelin versus Saline sows: 0.6
